Structures can show the parent of a compound that is named as a salt.
Test system: isolated guinea pig atria
Assay: Inotropic activity: increase in contractile force in isolated guinea pig atria
Conditions: Cavia porcellus; isolated left atrium, male guinea pig; 50% change of contractile force over the stabilized rate; Kreb's solution, 37° C., 3 Hz stimulation; read-out: Extrapolated ED50 value (concentration increasing contractile force by 50%)
Protocol: The aryl and heteroaryl ethers of desacetylforskolin of the present invention are useful in the treatment of cardiac failure by virtue of their ability to elicit a positive inotropic effect as evidenced by an increase in contractile force in an isolated guinea pig atria assay which is performed as follows: Male guinea pigs weighing 200-300 grams are stunned with a blow to the back of the head. The heart is rapidly removed and placed in a petri dish containing Kreb's solution. The ventricle is separated from the atria, the atria are sectioned in the right and left atria, and double-O silk ligatures are tied to the apex of the left atrium. The atrium is fixed to a pair of platinum plate electrodes and suspended in a 20 ml tissue bath containing Kreb's solution aerated with 95% oxygen-5% carbon dioxide at 37° C. One end of the atrium is fixed to a hook in the electrode and the other end is connected to a Grass FT03 force displacement transducer. Resting tension and stabilization time are the same as described above. The atrium is stimulated at 3 Hz, 0.5 msec duration at supramaximal voltage (constant current) via a Grass S88 stimulator and constant current unit. Force of contraction is continuously displaced on a Gould recorder Test drug is prepared as in section A and is added to the tissue baths in the same fashion. Change in contractile force from baseline is determined for each concentration, and the change in contractile force (g) is plotted against accumulated drug concentration (ug/ml). The activity of the test drug, i.e., the increase in contractile force (g) from the stabilized force expressed as the percentage change at a given concentration is determined graphically, as in the ED50 -value, i.e., the extrapolated does (μg/ml) which increases the contractile force by 50% over the stabilized rate.

SMILES	EC (50% increase) [µg/mL]
C=C[C@@]1(C)CC(=O)[C@]2(O)[C@@]3(C)[C@@H](O)CCC(C)(C)[C@@H]3[C@H](OC(=O)NCCN(C)C)[C@H](Oc3ccccn3)[C@@]2(C)O1 [A, 7-desacetyl-6-(2-dimethylaminoethylaminocarbonyl)-7-(pyridin-2-yl)forskolin hydrochloride hydrate]	0.009
C=C[C@@]1(C)CC(=O)[C@]2(O)[C@@]3(C)[C@@H](O)CCC(C)(C)[C@@H]3[C@H](O)[C@H](Oc3ncccn3)[C@@]2(C)O1 [B, 7-Desacetyl-7-(pyrimidin-2-yl)forskolin]	0.01
C=C[C@@]1(C)CC(=O)[C@]2(O)[C@@]3(C)[C@@H](O)CCC(C)(C)[C@@H]3[C@H](O)[C@H](OC(C)=O)[C@@]2(C)O1 [Compound C, Forskolin]	0.073
